# Test results reported in ChEMBL document CHEMBL3044900, “Synthesis of pregnenolonedanazolethylendiamine conjugate: relationship between descriptors log P, , R m, and V m and its antibacterial activity in S. aureus and V. cholerae” (2011).
# Columns and labels:
# Staphylococcus aureus = test: Antibacterial activity against Staphylococcus aureus ATCC 25923 incubated for 24 hr followed by compound washout measured after 24 hr by dilution method; assay type: functional
# Vibrio cholerae = test: Antibacterial activity against Vibrio cholerae ATCC 14035 incubated for 24 hr followed by compound washout measured after 24 hr by dilution method; assay type: functional
Molecule,"MIC (Staphylococcus aureus; ATCC 25923, 24 h) [µM]","MIC (Vibrio cholerae; ATCC 14035, 24 h) [µM]",MIC (Staphylococcus aureus) [µM],MIC (Vibrio cholerae) [µM]
C#C[C@@]1(OC(=O)CCC(=O)O[C@H]2CC[C@@]3(C)C(=CC[C@H]4[C@@H]5CC[C@H](C(C)=O)[C@@]5(C)CC[C@@H]43)C2)CC[C@H]2[C@@H]3CCC4=Cc5oncc5C[C@]4(C)[C@H]3CC[C@@]21C [DANAZOL-PREGNENOLONE],0.663,1.32,,
CO/N=C(\C(=O)N[C@@H]1C(=O)N2C(C(=O)O)=C(COC(C)=O)CS[C@H]12)c1csc(N)n1 [CEFOTAXIME],0.261,0.523,,
GENTAMICIN,,,0.274,0.0134
C#C[C@@]1(OC(=O)CCC(=O)O[C@H]2CC[C@@]3(C)C(=CC[C@H]4[C@@H]5CC[C@H](C(C)=O)[C@@]5(C)CC[C@@H]43)C2)CC[C@H]2[C@@H]3CCC4=C(CNCCN)c5oncc5C[C@]4(C)[C@H]3CC[C@@]21C,1.23,1.23,,
O=C(O)c1cn(C2CC2)c2cc(N3CCNCC3)c(F)cc2c1=O [CIPROFLOXACIN],0.377,3.01,,
